The results in this text go back to ChEMBL document CHEMBL1126639, “Centrally acting serotonergic and dopaminergic agents. 2. Synthesis and structure-activity relationships of 2,3,3a,4,9,9a-hexahydro-1H-benz[f]indole derivatives” (J Med Chem, 1993).

“And” between values parts separate entries of the source, which are not always exact repeats. Identical values can stand only once. The source made the active and inactive calls. The calls are words filed in the database; no cut-off is given here.

By ED50 is commonly meant the dose at which the effect has come halfway, by size or by number of responders. As a reminder, the Ki is a dissociation constant, usually derived from enzyme kinetics or from competition with a known ligand. The low end stands for higher affinity, the high end for lower affinity. Broadly, the IC50 is the concentration needed to halve the response being measured. Low readings indicate greater potency, high ones weaker potency.

In experiment [1] the target is T1, D(2) dopamine receptor (Homo sapiens, UniProt P14416). As to the kind of experiment: Intrinsic activity from GTP shift using CHO cell membranes expressing dopamine receptor D2. Format: functional.
T1 sequence (P14416 whole entry): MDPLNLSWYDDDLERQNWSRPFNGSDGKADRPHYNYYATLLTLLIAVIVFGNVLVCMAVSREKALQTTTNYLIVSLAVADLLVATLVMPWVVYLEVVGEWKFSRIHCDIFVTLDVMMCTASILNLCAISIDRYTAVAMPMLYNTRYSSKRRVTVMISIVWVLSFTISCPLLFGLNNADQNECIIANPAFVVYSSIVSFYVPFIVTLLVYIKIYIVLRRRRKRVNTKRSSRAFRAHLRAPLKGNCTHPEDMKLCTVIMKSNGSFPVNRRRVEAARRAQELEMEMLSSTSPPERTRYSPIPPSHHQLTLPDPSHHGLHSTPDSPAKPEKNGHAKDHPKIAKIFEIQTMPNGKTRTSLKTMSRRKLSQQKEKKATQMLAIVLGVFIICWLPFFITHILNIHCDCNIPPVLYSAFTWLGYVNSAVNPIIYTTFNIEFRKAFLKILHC
For experiment [2], the system named is Mus musculus. Put plainly: Ability to stimulate dopaminergic systems by effect on locomotor activity in reserpinized mice when a dose of 3.7 micro mol/kg is administered intraperitoneally. Format: functional.
The test system of experiment [3] is Mus musculus. Put plainly: Antagonism of apomorphine for 10-20 minutes in reserpinized mice when a dose of 37 micro mol/kg is administered intraperitoneally. Format: functional.
Another experiment has as its system Rattus norvegicus. As to the kind of experiment: Inhibition of firing rates of dopaminergic neurons in the substantia nigra pars compacta by intravenous injection in rats. Format: functional.
Experiment [4] deals with Mus musculus. Put plainly: Ability to stimulate dopaminergic systems by effect on locomotor activity in reserpinized mice when a dose of 37 micro mol/kg is administered intraperitoneally. It counts as functional.
Experiment [5] relates to Mus musculus. As to the kind of experiment: Antagonism of apomorphine for 0-10 minutes in reserpinized mice when a dose of 3.7 micro mol/kg is administered intraperitoneally. Format: functional.
In experiment [6] the target is T1, D(2) dopamine receptor. Put plainly: Binding affinity against [3H]U-86,170-labeled dopamine receptor D2 in cloned CHO cells. It counts as cell-based.
The subject of experiment [7] is Mus musculus. As to the kind of experiment: Antagonism of apomorphine in reserpinized mice when a dose of 37 micro mol/kg is administered intraperitoneally. It counts as functional.
The subject of experiment [8] is Mus musculus. Put plainly: Antagonism of apomorphine for 10-20 minutes in reserpinized mice when a dose of 3.7 micro mol/kg is administered intraperitoneally. Format: functional.
For experiment [9], the system named is Mus musculus. As to the kind of experiment: Antagonism of apomorphine for 0-10 minutes in reserpinized mice when a dose of 0.4 micro mol/kg is administered intraperitoneally. Format: functional.
For experiment [10], the system named is Mus musculus. As to the kind of experiment: Antagonism of apomorphine for 0-10 minutes in reserpinized mice when a dose of 37 micro mol/kg is administered intraperitoneally. It counts as functional.
Experiment [11] deals with Mus musculus. As to the kind of experiment: Ability to stimulate dopaminergic systems by effect on locomotor activity in reserpinized mice when a dose of 0.4 micro mol/kg is administered intraperitoneally. It counts as functional.
Experiment [12] concerns Mus musculus. Put plainly: Antagonism of apomorphine for 10-20 minutes in reserpinized mice when a dose of 0.4 micro mol/kg is administered intraperitoneally. Format: functional.
The target of experiment [13] is T2, D(2) dopamine receptor (Rattus norvegicus, UniProt P61169). As to the kind of experiment: Binding affinity for [3H]raclopride-labeled dopamine receptor D2 in rat striatum. It counts as tissue-based.
T2 sequence (P61169 whole entry): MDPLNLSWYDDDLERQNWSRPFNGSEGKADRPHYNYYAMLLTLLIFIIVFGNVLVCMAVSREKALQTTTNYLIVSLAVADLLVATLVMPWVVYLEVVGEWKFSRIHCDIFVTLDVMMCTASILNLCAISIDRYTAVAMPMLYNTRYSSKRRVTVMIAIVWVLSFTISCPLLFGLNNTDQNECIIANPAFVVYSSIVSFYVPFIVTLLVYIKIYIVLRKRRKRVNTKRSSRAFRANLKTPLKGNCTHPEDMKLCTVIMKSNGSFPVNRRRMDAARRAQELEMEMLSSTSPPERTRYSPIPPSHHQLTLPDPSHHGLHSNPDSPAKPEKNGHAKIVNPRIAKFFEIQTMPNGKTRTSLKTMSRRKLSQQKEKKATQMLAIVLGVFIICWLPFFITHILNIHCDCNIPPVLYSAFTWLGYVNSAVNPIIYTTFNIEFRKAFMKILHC
Experiment [14] deals with Mus musculus. As to the kind of experiment: Antagonism of apomorphine in reserpinized mice when a dose of 0.4 micro mol/kg is administered intraperitoneally. It counts as functional.
The subject of experiment [15] is Mus musculus. As to the kind of experiment: Antagonism of apomorphine in reserpinized mice when a dose of 3.7 micro mol/kg is administered intraperitoneally. Format: functional.
Experiment [16] has as its target T2, D(2) dopamine receptor. Put plainly: Inhibitory concentration against [3H]raclopride-labeled dopamine receptor D2 in rat striatum. It counts as tissue-based.
The subject of experiment [17] is Mus musculus. As to the kind of experiment: Time of effect in the face-to-face behavioral assay in the mouse when a dose of 3.4 micro mol/kg is administered perorally. It counts as functional.
Experiment [18] has as its system Mus musculus. As to the kind of experiment: Effective dose on hypothermia in mouse when administered through peroral route. To be noted: Mus musculus, po; read-out: ED50. It counts as functional.
Experiment [19] relates to Mus musculus. Put plainly: Time of effect in the isolation-induced aggression behavioral assay in the mouse when a dose of 10 micro mol/kg is administered perorally. Format: functional.
In experiment [20] the test system is Mus musculus. Put plainly: Time of effect in the face-to-face behavioral assay in the mouse when a dose of 34 micro mol/kg is administered perorally. Format: functional.
The test system of experiment [21] is Mus musculus. Put plainly: Time of effect in the face-to-face behavioral assay in the mouse when a dose of 0.3 micro mol/kg is administered perorally. It counts as functional.
In experiment [22] the test system is Mus musculus. Put plainly: Time of effect in the isolation-induced aggression behavioral assay in the mouse when a dose of 3.4 micro mol/kg is administered perorally. It counts as functional.
For experiment [23], the target named is T2, D(2) dopamine receptor. As to the kind of experiment: Compound was evaluated for the binding affinity against [3H]raclopride-labeled dopamine receptor D2 in rat striatum. Format: tissue-based.
The subject of experiment [24] is Mus musculus. As to the kind of experiment: Time of effect in the face-to-face behavioral assay in the mouse when a dose of 0.0 micro mol/kg is administered perorally. It counts as functional.
In experiment [25] the test system is Mus musculus. Put plainly: Effective dose on hypothermia in mouse when administered subcutaneously. Format: functional. To be noted: Mus musculus, sc; read-out: ED50.
Experiment [26] relates to Mus musculus. As to the kind of experiment: Maximum decrease in temperature when compound is administered subcutaneously. Format: functional.
The subject of experiment [27] is Mus musculus. Put plainly: Maximum decrease in temperature when compound is administered through peroral route. Format: functional.
The species entered for experiment [28] is Mus musculus. Put plainly: Time of effect in the face-to-face behavioral assay in the mouse […]. It counts as functional.
For experiment [29], the system named is Mus musculus. Put plainly: Time of effect in the face-to-face behavioral assay in the mouse when a dose of 54 micro mol/kg is administered subcutaneously. It counts as functional.
Experiment [30] concerns Mus musculus. Put plainly: Time of effect in the face-to-face behavioral assay in the mouse when a dose of 5.4 micro mol/kg is administered subcutaneously. It counts as functional.
Experiment [31] has as its target Sodium-dependent dopamine transporter (Rattus norvegicus) (UniProt P23977). Put plainly: Inhibition of firing rates of dopaminergic neurons in the substantia nigra pars compacta by intravenous injection in rats. It counts as functional, tissue-based.
In another experiment the test system is Felis catus. As to the kind of experiment: Effective dose at which the sympathetic nerve activity (SND) has been reduced to 50% of the pretreatment value in anesthetized cat; In active. It counts as functional, organism-based.

Chain of Sodium-dependent dopamine transporter (Rattus norvegicus) (P23977 whole entry): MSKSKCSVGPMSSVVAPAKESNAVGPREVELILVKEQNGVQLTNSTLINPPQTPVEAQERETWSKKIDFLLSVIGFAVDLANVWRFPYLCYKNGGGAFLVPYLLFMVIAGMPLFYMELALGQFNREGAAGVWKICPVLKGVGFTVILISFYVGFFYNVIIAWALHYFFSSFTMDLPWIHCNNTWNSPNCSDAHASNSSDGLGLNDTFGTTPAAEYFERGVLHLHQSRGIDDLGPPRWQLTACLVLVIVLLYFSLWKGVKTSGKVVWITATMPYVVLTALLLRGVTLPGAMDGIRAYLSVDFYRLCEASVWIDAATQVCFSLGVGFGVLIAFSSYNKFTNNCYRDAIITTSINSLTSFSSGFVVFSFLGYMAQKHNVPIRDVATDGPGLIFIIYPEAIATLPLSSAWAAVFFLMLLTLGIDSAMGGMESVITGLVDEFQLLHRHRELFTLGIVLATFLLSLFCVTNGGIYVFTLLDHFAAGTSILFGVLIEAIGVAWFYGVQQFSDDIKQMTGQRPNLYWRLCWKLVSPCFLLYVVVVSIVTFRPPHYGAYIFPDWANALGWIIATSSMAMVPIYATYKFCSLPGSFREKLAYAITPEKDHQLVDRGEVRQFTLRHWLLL

For the molecule `CCCN1CC[C@@H]2Cc3c(O)cccc3C[C@@H]21` (racemic), the Intrinsic activity on D(2) dopamine receptor [1] was found to be 61%.
Consider `C=CCN1CC[C@H]2Cc3c(O)cccc3C[C@@H]21`, for which the Locomotor activity with Mus musculus [2] stood at 1; in the experiment with Mus musculus [3], 103; in the experiment with Mus musculus [4], 113; in the experiment with Mus musculus [5], 109; with Mus musculus [7] it was 77; in the experiment with Mus musculus [8], 119. Also, the Locomotor activity was 121 with Mus musculus [9]; 84 in the experiment with Mus musculus [10]; 45 in the experiment with Mus musculus [11]; 119 in the experiment on Mus musculus [12]; 81 in the experiment with Mus musculus [14]; 86 in the experiment on Mus musculus [15]. The molecule further displayed an ED50 in the experiment on Rattus norvegicus of 0.94 µmol/kg. The results for the inhibition constant Ki at D(2) dopamine receptor [6] and on D(2) dopamine receptor [13] were 235 nM and 47 nM, respectively. The Intrinsic activity on D(2) dopamine receptor [1] came to 21%.
Regarding `COc1cccc2c1C[C@H]1CCN[C@H]1C2` (racemic), the half-maximal inhibitory concentration (IC50) on D(2) dopamine receptor [16] was > 1000 nM.
As to `C=CCN1CC[C@@H]2Cc3cccc(OC)c3C[C@H]21` (racemic), the half-maximal inhibitory concentration (IC50) against D(2) dopamine receptor [16] is > 1000 nM.
In the case of `COc1cccc2c1C[C@H]1CCN(Cc3ccccc3)[C@H]1C2` (racemic), the Ki at D(2) dopamine receptor [13] came out at 465 nM.
Take `CCCN1CC[C@H]2Cc3c(cccc3OC)C[C@@H]21`: at D(2) dopamine receptor [16], the IC50 was > 1000 nM.
Regarding `COc1cccc2c1C[C@H]1CCN(Cc3ccccc3)[C@@H]1C2` (racemic), the Ki at D(2) dopamine receptor [13] is > 10000 nM.
In the case of `COc1cccc2c1C[C@H]1CCN(CC3CC3)[C@@H]1C2` (racemic), the Time in the experiment on Mus musculus [17] worked out at 1.6 s; in the experiment on Mus musculus [19], 177 s; in the experiment with Mus musculus [20], 1.5 s; in the experiment with Mus musculus [21] it was 0.9 s; in the experiment on Mus musculus [22], 58 s; in the experiment with Mus musculus [24], 1 s. For the same molecule, the 50% effective dose (ED50) came out at 25 µmol/kg in the experiment with Mus musculus [18] and 19 µmol/kg with Mus musculus [25]. Also, at D(2) dopamine receptor [23], the inhibition constant Ki was > 1000 nM. For the same molecule, the Max temperature decrease in the experiment on Mus musculus [26] is 7; in the experiment with Mus musculus [27], 6.2.
As to `CC(N)Cc1ccccc1.O=S(=O)(O)O` (configuration not stated) [AMPHETAMINE SULFATE], the figures for the Time in the experiment filed under Mus musculus [28], with Mus musculus [29] and in the experiment on Mus musculus [30] were 2.6 s, 2.9 s and 2.4 s, respectively.
Regarding `COc1cccc2c1C[C@H]1CCN[C@@H]1C2` (racemic), the values for the ED50 in the experiment with Mus musculus [18] and with Mus musculus [25] were > 125 µmol/kg and 1.7 µmol/kg, respectively. The IC50 against D(2) dopamine receptor [16] was > 1000 nM. In addition, the Max temperature decrease with Mus musculus [26] worked out at 6.2.
With `C=CCN1CC[C@@H]2Cc3c(cccc3OC)C[C@H]21` (racemic), the ED50 in [31] was > 10.7 µmol/kg and 6.8 µmol/kg. The ED50 result in the experiment with Felis catus was “inactive”.
